{
  "source": "patent US12667584B2",
  "about": "“Adenosine analog and its use in regulating the circadian clock” (NATIONAL INSTITUTE OF BIOLOGICAL SCIENCES, BEIJING, priority 2017, dated 2026)",
  "key": {"CDK9": {"molecular_target": "T1, CDK9 (Homo sapiens, UniProt P50750)", "T1 construct": "Every 10^8 unsynchronized U2OS cells were collected, homogenized into 2 ml lysis buffer; endogenous in cells; host or cells: U2OS", "T1 sequence (P50750 whole entry)": "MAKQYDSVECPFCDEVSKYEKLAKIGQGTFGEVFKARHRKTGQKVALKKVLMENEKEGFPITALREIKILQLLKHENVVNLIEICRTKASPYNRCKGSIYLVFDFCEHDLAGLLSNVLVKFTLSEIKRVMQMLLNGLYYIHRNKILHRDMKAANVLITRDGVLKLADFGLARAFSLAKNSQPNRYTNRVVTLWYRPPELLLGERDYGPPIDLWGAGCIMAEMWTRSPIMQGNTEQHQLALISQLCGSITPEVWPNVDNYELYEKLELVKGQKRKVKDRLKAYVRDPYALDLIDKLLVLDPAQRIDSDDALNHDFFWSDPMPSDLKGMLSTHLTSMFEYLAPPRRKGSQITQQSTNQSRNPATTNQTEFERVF", "T1 sequence (O60563 whole entry partner)": "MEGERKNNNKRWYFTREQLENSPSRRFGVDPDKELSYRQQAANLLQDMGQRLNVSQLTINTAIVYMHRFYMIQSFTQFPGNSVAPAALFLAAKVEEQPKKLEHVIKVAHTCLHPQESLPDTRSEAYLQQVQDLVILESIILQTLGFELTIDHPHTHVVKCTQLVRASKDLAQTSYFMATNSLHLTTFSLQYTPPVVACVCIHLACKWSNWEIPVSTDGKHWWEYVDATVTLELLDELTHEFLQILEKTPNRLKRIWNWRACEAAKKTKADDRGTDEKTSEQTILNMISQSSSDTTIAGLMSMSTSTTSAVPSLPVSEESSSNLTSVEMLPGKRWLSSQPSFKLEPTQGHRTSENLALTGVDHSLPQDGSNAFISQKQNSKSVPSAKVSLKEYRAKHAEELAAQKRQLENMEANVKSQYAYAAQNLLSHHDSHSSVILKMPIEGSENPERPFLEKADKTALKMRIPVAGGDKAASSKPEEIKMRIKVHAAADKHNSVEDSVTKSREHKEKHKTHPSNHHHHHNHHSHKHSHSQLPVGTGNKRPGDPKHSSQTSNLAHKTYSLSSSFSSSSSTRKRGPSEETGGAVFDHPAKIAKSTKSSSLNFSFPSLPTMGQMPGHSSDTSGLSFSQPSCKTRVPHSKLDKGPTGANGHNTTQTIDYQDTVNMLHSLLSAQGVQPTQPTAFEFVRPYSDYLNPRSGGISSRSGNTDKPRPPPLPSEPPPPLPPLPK", "assay": "Biotinylated compounds pull-down in U2OS cell lysate, CDK9", "format": "binding", "procedure": "(§1) Biotinylated Compounds Pull-down, SPR analysis and Immunoprecipitation: The interaction between biotinylated compounds and their target proteins were proceeded as follow. Every 10^8 unsynchronized U2OS cells were collected, homogenized into 2 ml lysis buffer (25 mM MOPS pH7.2, 15 mM EGTA, 15 mM MgCl2, 1 mM DTT, 60 mM β-glycerophosphate, 1 mM Na3VO4, 1 mM NaF, 1 mM phenyl phosphate, Complete Protease Inhibitor Cocktail), and sonicated 6 times for 30 s at 4° C. with a Diagenode bioruptor. After sonication, NP-40 (final 0.5%) was added, incubated 15 min on ice, centrifuged at full speed for 20 min at 4° C. The resultant supernatant was firstly incubated with Pentostatin (final concentration at 5 μg/ml) for 2 h at 4° C. with rotation, and then split into 4 groups. 200 pmol cordycepin, 200 pmol DRB, and DMSO (2 groups, final 0.1%) was added respectively and further incubated for 1 h. […] The eluted protein was analyzed with western blot. The binding affinity of cordycepin against the RUVBL2 protein was measured via SPR technology using a Biacore T200 instrument (GE Healthcare) at room temperature. […] The binding kinetics and binding affinity of cordycepin against the RUVBL2 protein were determined with BIA evaluation software (GE healthcare). […] Immunoprecipitated protein complex was then washed 3 times with IP lysis buffer, boiled and analyzed with western blot. […]"}, "Ruvbl2": {"molecular_target": "Ruvbl2 (Homo sapiens, UniProt Q9Y230)", "sequence (Q9Y230 whole entry)": "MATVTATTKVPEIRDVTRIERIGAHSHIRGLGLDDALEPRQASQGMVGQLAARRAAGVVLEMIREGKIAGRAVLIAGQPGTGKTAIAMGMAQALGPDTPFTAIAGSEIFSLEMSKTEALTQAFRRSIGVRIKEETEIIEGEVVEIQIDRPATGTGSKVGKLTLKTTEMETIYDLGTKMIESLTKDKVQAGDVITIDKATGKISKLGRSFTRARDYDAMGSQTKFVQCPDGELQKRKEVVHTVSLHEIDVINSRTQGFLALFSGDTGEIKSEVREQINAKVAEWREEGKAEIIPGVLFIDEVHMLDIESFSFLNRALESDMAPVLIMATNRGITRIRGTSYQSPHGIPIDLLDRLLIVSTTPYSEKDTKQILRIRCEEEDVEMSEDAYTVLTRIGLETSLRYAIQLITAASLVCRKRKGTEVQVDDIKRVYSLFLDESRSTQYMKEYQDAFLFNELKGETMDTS", "assay": "Biotinylated compounds pull-down in U2OS cell lysate, RUVBL2", "format": "binding", "design": "Every 10^8 unsynchronized U2OS cells were collected, homogenized into 2 ml lysis buffer; endogenous in cells; host or cells: U2OS", "conditions": "competed by biotin free compound", "procedure": "as §1"}},
  "data": [
    {"smiles": "O=C1N[C@H]2[C@H](CS[C@H]2CCCCC(=O)OC[C@H]2O[C@@H](n3cnc4cc(Cl)c(Cl)cc43)[C@H](O)[C@@H]2O)N1", "note": "[biotin-DRB, 5,6-dichloro-1-(5′-O-biotinyl-β-D-ribofuranosyl)-benzimidazole]", "values": [
      {"measurement": "pull-down of CDK9", "setting": "CDK9", "result": "successfully isolated"},
      {"measurement": "pull-down of Ruvbl2", "setting": "Ruvbl2", "result": "can pull-down"}
    ]}
  ]
}
